Experimental data from patent US8404685B2, “Dihydropyrazole derivatives as tyrosine kinase modulators for the treatment of tumors” (Merck Patent Gesellschaft Mit Beschrankter Haftung, priority 2008, dated 2013).

Key:
Met kinase [1] = molecular target: T1, Met kinase (Homo sapiens, UniProt P08581); experiment: Met kinase inhibition (cell); assay type: cell-based
Met kinase [2] = molecular target: T1, Met kinase; experiment: Met kinase inhibition, flashplate method (enzyme); assay type: biochemical; parameters: 6His (N); purchased Upstate 14-526; host or cells: Sf21 insect cells (S. frugiperda), baculovirus
From the text: According to the manufacturer's data (Met, active, Upstate, catalogue No. 14-526), Met kinase is expressed for the purposes of protein production in insect cells (Sf21; S. frugiperda) and subsequent affinity-chromatographic purification as “N-terminal 6His-tagged” recombinant human protein in a baculovirus expression vector.
The test plates used are 96-well Flashplate® microtitre plates from Perkin Elmer (Cat. No. SMP200). The components of the kinase reaction described below are pipetted into the assay plate. The Met kinase and the substrate poly Ala-Glu-Lys-Tyr, (pAGLT, 6:2:5:1), are incubated for 3 hrs at room temperature with radioactively labelled ^33P-ATP in the presence and absence of test substances in a total volume of 100 μl. The reaction is terminated using 150 μl of a 60 mM EDTA solution. After incubation for a further 30 min at room temperature, the supernatants are filtered off with suction, and the wells are washed three times with 200 μl of 0.9% NaCl solution each time. The measurement of the bound radioactivity is carried out by means of a scintillation measuring instrument (Topcount NXT, Perkin-Elmer).
The full value used is the inhibitor-free kinase reaction. This should be approximately in the range 6000-9000 cpm. The pharmacological zero value used is staurosporin in a final concentration of 0.1 mM. The inhibitory values (IC50) are determined using the RS1_MTS program.
Kinase reaction conditions per well:
10 μl of substance to be tested in assay buffer with 10% of DMSO
10 μl of ATP (final concentration 1 μM cold, 0.35 μCi of ^33P-ATP)
50 μl of Met kinase/substrate mixture in assay buffer;
• (10 ng of enzyme/well, 50 ng of pAGLT/well) • Solutions used: • Assay buffer: • 50 mM HEPES • 3 mM magnesium chloride • 3 μM sodium orthovanadate • 3 mM manganese(II) chloride • 1 mM dithiothreitol (DTT) • pH=7.5 (to be set using sodium hydroxide) • Stop solution: • 60 mM Titriplex III (EDTA) • ^33P-ATP: Perkin-Elmer; • Met kinase: Upstate, Cat. No. 14-526, Stock 1 μg/10 μl; spec. activity 954 U/mg; • Poly-Ala-Glu-Lys-Tyr, 6:2:5:1: Sigma Cat. No. P1152 In-Vivo Tests

T1 sequence (P08581 25-1390): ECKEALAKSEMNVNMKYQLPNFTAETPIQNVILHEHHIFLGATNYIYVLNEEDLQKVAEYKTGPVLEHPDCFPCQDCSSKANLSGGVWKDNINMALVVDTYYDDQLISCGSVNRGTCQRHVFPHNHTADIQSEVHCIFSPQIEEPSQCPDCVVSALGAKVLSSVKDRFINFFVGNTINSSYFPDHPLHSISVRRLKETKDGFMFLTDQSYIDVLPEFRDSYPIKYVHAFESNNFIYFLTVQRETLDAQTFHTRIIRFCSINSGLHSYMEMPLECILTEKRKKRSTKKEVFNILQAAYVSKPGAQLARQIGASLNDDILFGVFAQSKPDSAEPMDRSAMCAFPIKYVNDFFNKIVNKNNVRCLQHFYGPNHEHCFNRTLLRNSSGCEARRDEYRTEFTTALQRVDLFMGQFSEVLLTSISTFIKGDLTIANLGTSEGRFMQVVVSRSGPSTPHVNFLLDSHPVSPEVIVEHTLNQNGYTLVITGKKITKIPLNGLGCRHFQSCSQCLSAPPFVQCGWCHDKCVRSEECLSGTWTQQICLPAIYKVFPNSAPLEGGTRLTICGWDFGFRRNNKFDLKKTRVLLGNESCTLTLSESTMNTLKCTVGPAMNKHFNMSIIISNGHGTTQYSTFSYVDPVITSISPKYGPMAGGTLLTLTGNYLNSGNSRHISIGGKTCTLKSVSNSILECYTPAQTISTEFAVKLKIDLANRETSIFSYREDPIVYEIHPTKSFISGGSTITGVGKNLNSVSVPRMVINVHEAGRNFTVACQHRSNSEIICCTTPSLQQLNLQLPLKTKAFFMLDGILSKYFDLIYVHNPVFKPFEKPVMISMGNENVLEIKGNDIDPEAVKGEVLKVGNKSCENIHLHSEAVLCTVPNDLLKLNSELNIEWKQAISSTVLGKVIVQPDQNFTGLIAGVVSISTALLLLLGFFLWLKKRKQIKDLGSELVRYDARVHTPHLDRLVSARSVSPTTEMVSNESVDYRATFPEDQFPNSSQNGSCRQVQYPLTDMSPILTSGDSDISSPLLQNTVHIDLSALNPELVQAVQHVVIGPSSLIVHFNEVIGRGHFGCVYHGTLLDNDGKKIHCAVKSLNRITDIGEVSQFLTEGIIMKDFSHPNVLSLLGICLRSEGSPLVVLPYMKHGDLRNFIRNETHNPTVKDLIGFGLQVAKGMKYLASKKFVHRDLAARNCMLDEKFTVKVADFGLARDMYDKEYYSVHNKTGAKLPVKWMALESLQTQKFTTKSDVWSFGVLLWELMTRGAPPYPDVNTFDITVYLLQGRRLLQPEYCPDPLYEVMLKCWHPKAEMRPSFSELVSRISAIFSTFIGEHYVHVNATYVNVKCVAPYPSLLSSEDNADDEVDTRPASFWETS

IC50 (Met kinase [1])	IC50 (Met kinase [2])	SMILES
1 to 100 nM	1 to 100 nM	N#Cc1cccc(C2=NN(C(=O)Cc3cccc(-c4ncc(Br)cn4)c3)CC2)c1 [Compound A7, 3-(1-{2-[3-(5-bromopyrimidin-2-yl)phenyl]acetyl}-4,5-dihydro-1H-pyrazol-3-yl)benzonitrile]
1 to 100 nM	1 to 100 nM	O=C(Cc1cccc(-c2ncc(-c3cnn(CCN4CCCC4)c3)cn2)c1)N1CCC(c2cc(Cl)ccc2Cl)=N1 [Compound A1, 1-[3-(2,5-dichlorophenyl)-4,5-dihydropyrazol-1-yl]-2-(3-{5-[1-(2-pyrrolidin-1-ylethyl)-1H-pyrazol-4-yl]pyrimidin-2-yl}phenyl)ethanone]
1 to 100 nM	1 to 100 nM	O=C(Cc1cccc(-c2ncc(OCCN3CCOCC3)cn2)c1)N1CCC(c2cc(Cl)ccc2Cl)=N1 [Compound A8, 1-[3-(2,5-dichlorophenyl)-4,5-dihydropyrazol-1-yl]-2-{3-[5-(2-morpholin-4-ylethoxy)pyrimidin-2-yl]phenyl}ethanone]
